Laboratory results taken from ChEMBL document CHEMBL1153932, “Hybrid alpha-bromoacryloylamido chalcones. Design, synthesis and biological evaluation” (Bioorg Med Chem Lett, 2009).

Legend:
FM3A = test: Antiproliferative activity against mouse FM3A cells after 48 hrs by Coulter counting analysis; assay type: functional, cell-based
CCRF-CEM = test: Antiproliferative activity against human CEM cells after 48 hrs by Coulter counting analysis; assay type: cell-based
MOLT-4 = test: Antiproliferative activity against human MOLT4 cells after 48 hrs by Coulter counting analysis; assay type: functional, cell-based; settings: MOLT-4, 48 h
HeLa = test: Antiproliferative activity against human HeLa cells after 48 hrs by Coulter counting analysis; assay type: functional, cell-based
L1210 = test: Antiproliferative activity against mouse L1210 cells after 48 hrs by Coulter counting analysis; assay type: functional, cell-based; settings: L1210, 48 h

| IC50 (CCRF-CEM) [µM] | IC50 (MOLT-4) [µM] | IC50 (HeLa) [µM] | IC50 (L1210) [µM] | Compound | IC50 (FM3A) [µM] |
| --- | --- | --- | --- | --- | --- |
| 22 | 12 | 18 | 32 | Nc1ccc(/C=C/C(=O)c2cccc3ccccc23)cc1 | 41 |
| 8.5 | 7.9 | 7.7 | 14 | Nc1ccc(C(=O)/C=C/c2ccccc2)cc1 | 34 |
| 4 | 2.8 | 7.7 | 3.4 | C=C(Br)C(=O)Nc1ccc(/C=C/C(=O)c2ccc(I)cc2)cc1 | 8.3 |
| 1.8 | 1.1 | 0.5 | 1.1 | C=C(Br)C(=O)Nc1ccc(C(=O)/C=C/c2cccc(OC)c2)cc1 | 1.8 |
| 9.3 | 8.6 | 7.8 | 25 | COc1ccc(/C=C/C(=O)c2ccc(N)cc2)cc1OC | 35 |
| 1.7 | 1.8 | 3.2 | 2.1 | C=C(Br)C(=O)Nc1ccc(/C=C/C(=O)c2ccc(Cl)c(Cl)c2)cc1 | 3.2 |
| 39 | 12 | 40 | 123 | Nc1ccc(/C=C/C(=O)c2ccc(F)cc2)cc1 | 185 |
| 2.5 | 1.5 | 1.9 | 14 | COc1cc(C(=O)/C=C/c2ccc(N)cc2)cc(OC)c1OC | 36 |
| – | – | – | > 120 | C=C(Br)C(=O)O | – |
| 0.33 | 0.28 | 0.42 | 1.5 | C=C(Br)C(=O)Nc1ccc(C(=O)/C=C/c2cc(OC)c(OC)c(OC)c2)cc1 | 1.8 |
| 1.6 | 1.8 | 0.77 | 1.3 | C=C(Br)C(=O)Nc1ccc(C(=O)/C=C/c2ccc(OC)c(OC)c2)cc1 | 1.2 |
| 2.3 | 0.85 | 0.7 | 2.1 | C=C(Br)C(=O)Nc1ccc(/C=C/C(=O)c2cccc(OC)c2)cc1 | 2.7 |
| 1.1 | 0.85 | 1.1 | 0.91 | C=C(Br)C(=O)Nc1ccc(/C=C/C(=O)c2cc(OC)c(OC)c(OC)c2)cc1 | 0.95 |
| 37 | 19 | 98 | 160 | COc1ccc(C(=O)/C=C/c2ccc(N)cc2)cc1 | 282 |
| 14 | 8.6 | 8.7 | 18 | COc1ccc(/C=C/C(=O)c2ccc(N)cc2)cc1 | 35 |
| 18 | 20 | 22 | 34 | COc1ccc(/C=C/C(=O)c2ccc(N)cc2)c(OC)c1 | 43 |
| 20 | 9.9 | 28 | 67 | CN(C)c1ccc(/C=C/C(=O)c2ccc(N)cc2)cc1 | 96 |
| 1.8 | 1.7 | 2.1 | 1.9 | C=C(Br)C(=O)Nc1ccc(/C=C/C(=O)c2ccc(C)cc2)cc1 | 2.1 |
| 21 | 7.8 | 43 | 111 | Nc1ccc(/C=C/C(=O)c2ccc(Cl)cc2)cc1 | 178 |

| IC50 (CCRF-CEM) [µM] | IC50 (MOLT-4) [µM] | IC50 (HeLa) [µM] | IC50 (L1210) [µM] | Compound | IC50 (FM3A) [µM] |
| --- | --- | --- | --- | --- | --- |
| 1.1 | 0.66 | 1.4 | 1.6 | C=C(Br)C(=O)Nc1ccc(/C=C/C(=O)c2ccc(F)cc2)cc1 | 1.2 |
| 16 | 7.5 | 58 | 50 | Nc1ccc(/C=C/C(=O)c2ccc(I)cc2)cc1 | 110 |
| 4 | 3.1 | 3.9 | 5 | C=C(Br)C(=O)Nc1ccc(/C=C/C(=O)c2ccccc2)cc1 | 3.9 |
| 26 | 20 | 33 | 38 | COc1cccc(C(=O)/C=C/c2ccc(N)cc2)c1 | 43 |
| 14 | 10 | 49 | 90 | Nc1ccc(/C=C/C(=O)c2ccc(Br)cc2)cc1 | 120 |
| 23 | 21 | 19 | 22 | COc1cccc(/C=C/C(=O)c2ccc(N)cc2)c1 | 45 |
| 15 | 11 | 41 | 21 | CCOc1ccc(C(=O)/C=C/c2ccc(N)cc2)cc1 | 55 |
| 27 | 13 | 15 | 87 | Nc1ccc(/C=C/C(=O)c2cccs2)cc1 | 123 |
| 1.4 | 1.3 | 1.4 | 0.98 | C=C(Br)C(=O)Nc1ccc(/C=C/C(=O)c2ccc(OC)cc2)cc1 | 1.2 |
| 3.1 | 2.1 | 2 | 1.1 | C=C(Br)C(=O)Nc1ccc(/C=C/C(=O)c2cccc3ccccc23)cc1 | 2.4 |
| 2.3 | 5.6 | 6.9 | 7.8 | COc1cc(/C=C/C(=O)c2ccc(N)cc2)cc(OC)c1OC | 8.8 |
| 2.2 | 1.5 | 1.7 | 2.7 | C=C(Br)C(=O)Nc1ccc(C(=O)/C=C/c2cc(OC)cc(OC)c2)cc1 | 2 |
| 34 | 10 | 36 | 88 | Nc1ccc(/C=C/C(=O)c2ccccc2)cc1 | 146 |
| 15 | 13 | 31 | 26 | Nc1ccc(/C=C/C(=O)c2ccc(Cl)c(Cl)c2)cc1 | 33 |
| 1.1 | 1.5 | 1.1 | 0.52 | C=C(Br)C(=O)Nc1ccc(C(=O)/C=C/c2ccc(OC)cc2OC)cc1 | 1.2 |
| 5.7 | 7.5 | 7.9 | 6 | COc1cc(/C=C/C(=O)c2ccc(N)cc2)cc(OC)c1 | 12 |
| 31 | 12 | 40 | 49 | Cc1ccc(C(=O)/C=C/c2ccc(N)cc2)cc1 | 107 |
| 0.95 | 0.81 | 1.6 | 1.1 | C=C(Br)C(=O)Nc1ccc(/C=C/C(=O)c2ccc(Cl)cc2)cc1 | 1.3 |
| 9.7 | 10 | 8.2 | 25 | COc1ccc(/C=C/C(=O)c2ccc(N)cc2)c(OC)c1OC | 29 |
